Measured values reported in ChEMBL document CHEMBL1201862, “PubChem BioAssay data set” (2004).
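Cells were grown in 96-well plates and exposed to each compound for 48 hours at five concentrations; endpoints were interpolated linearly between bracketing concentrations, or set to the highest concentration if not reached. GI50: concentration for 50% inhibition of growth.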 The source made the active and inactive calls. Cut-off read from the data, not from the text of the source: active = GI50 up to about 1.1 µM and inactive = higher.

Experiments:
Experiment in all cases: growth of human tumour cells (NCI), 48 h
[1] = tested on: ACHN
[2] = tested on: BT-549
[3] = tested on: DU-145
[4] = tested on: HCC 2998
[5] = tested on: HCT-116
[6] = tested on: K562
[7] = tested on: KM12
[8] = tested on: MDA-MB-231
[9] = tested on: NCI-H460
[10] = tested on: OVCAR-4
[11] = tested on: PC-3
[12] = tested on: RPMI-8226
[13] = tested on: RXF 393
[14] = tested on: SK-MEL-28
[15] = tested on: SK-MEL-2
[16] = tested on: SK-MEL-5
[17] = tested on: UACC-62
[18] = tested on: HOP-92
[19] = tested on: MDA-N

Measured: GI50

O=C(O)Cc1ccc(Oc2nc3ccccc3nc2-c2ccccc2)cc1
inactive: [1] 51.4 µM | [2] 37 µM | [3] 69.7 µM | [4] 49.5 µM | [5] 85.7 µM | [6] 97.9 µM | [7] 60.5 µM | [8] 58.1 µM | [9] 57.8 µM | [10] > 100 µM | [11] 56 µM | [12] 66.8 µM | [13] 29.2 µM | [14] 90.6 µM | [15] 70 µM | [16] 59.6 µM | [17] 24.9 µM

CC(C)(C)OC(=O)N1C[C@H](CC(=O)OCc2ccccc2)C[C@H]1C(=O)OCC(Cl)(Cl)Cl
inactive: [1] 5.01 µM | [2] 8.15 µM | [3] > 50 µM | [4] 10.7 µM | [5] 3.88 µM | [18] 1.79 µM | [6] 2 µM | [7] 2.76 µM | [8] 11.3 µM | [9] 11.2 µM | [10] 3.95 µM | [11] 2.17 µM | [13] 6.15 µM | [14] 13.6 µM | [15] 6.7 µM | [16] 2.24 µM | [17] 5.6 µM

[N-]=[N+]=Nc1cccc(-c2nnc(Cl)cc2O)c1
inactive: [1] > 100 µM | [2] > 100 µM | [3] > 100 µM | [4] > 100 µM | [5] > 100 µM | [18] > 100 µM | [6] > 100 µM | [7] > 100 µM | [8] > 100 µM | [9] > 100 µM | [10] > 100 µM | [11] > 100 µM | [12] > 100 µM | [13] > 100 µM | [14] > 100 µM | [17] > 100 µM

O=C(Nc1ccc(Sc2ccc(/N=N/c3c(O)c(S(=O)(=O)O)cc4cc(S(=O)(=O)O)ccc34)cc2)cc1)c1ccc(/N=N/c2c(O)ccc3c(S(=O)(=O)O)cc(S(=O)(=O)O)cc23)cc1
inactive: [1] 29.4 µM | [4] > 100 µM | [5] 49.3 µM | [18] 78 µM | [6] 10.1 µM | [7] 39.9 µM | [9] 28.1 µM | [10] 33.8 µM | [12] 10.4 µM | [13] 50.6 µM | [14] 48.1 µM | [15] 27.9 µM | [16] 7.5 µM | [17] 16.9 µM

CCOC(=O)C1=C(Nc2ccccc2)SC/C1=N\NC(=O)Cc1ccccc1
inactive: [1] > 100 µM | [4] > 100 µM | [5] > 100 µM | [18] > 100 µM | [6] > 100 µM | [7] > 100 µM | [9] > 100 µM | [10] > 100 µM | [13] > 100 µM | [14] > 100 µM | [15] > 100 µM | [16] > 100 µM | [17] > 100 µM

N#CC(C(=O)c1cccnc1Cl)c1nc2cc(C(F)(F)F)ccc2s1 (stereo not given)
inactive: [1] > 100 µM | [2] 37.4 µM | [3] > 100 µM | [5] 26.1 µM | [18] 12.4 µM | [6] 60.5 µM | [7] 58.9 µM | [8] 54 µM | [9] 59.6 µM | [10] 67 µM | [12] 41.6 µM | [13] 42.3 µM | [14] 56.8 µM | [16] > 100 µM

CC(=O)NC(NCCN)(c1ccccc1)c1ccccc1
inactive: [1] > 100 µM | [3] > 100 µM | [4] > 100 µM | [5] > 100 µM | [18] 16.9 µM | [6] > 100 µM | [7] > 100 µM | [8] > 100 µM | [9] > 100 µM | [10] > 100 µM | [12] > 100 µM | [13] > 100 µM | [14] > 100 µM | [16] > 100 µM

CCCCc1ccc(-n2c(C)c(COC(=O)NC)c(COC(=O)NC)c2C)cc1
inactive: [1] 2.11 µM | [3] 6.98 µM | [4] 12.7 µM | [5] 4.08 µM | [18] 2.74 µM | [6] 6.03 µM | [7] 12.7 µM | [8] 4.9 µM | [19] 13.2 µM | [9] 3.81 µM | [11] 10.9 µM | [12] 4.47 µM | [13] 2.84 µM | [14] 19.1 µM | [16] 11.4 µM | [17] 2.29 µM

COC(=O)C(Cc1ccccc1)NC(=O)CNC(=O)CSc1nnc(COc2ccc(Cl)cc2)n1-c1ccccc1 (stereo not given)
inactive: [1] 14.2 µM | [2] 18.7 µM | [3] 17.5 µM | [4] 12 µM | [5] 17.8 µM | [18] 17.4 µM | [6] 25.3 µM | [7] 18.7 µM | [8] 17 µM | [9] 16.3 µM | [10] 6.73 µM | [11] 17.1 µM | [12] 4.74 µM | [13] 16.7 µM | [14] 18 µM | [15] 17 µM | [16] 16.1 µM | [17] 14.5 µM

CN/C(=N\C#N)N(Cc1ccccc1)Cc1ccccc1
inactive: [1] > 100 µM | [4] > 100 µM | [5] > 100 µM | [18] > 100 µM | [7] > 100 µM | [9] > 100 µM | [10] > 100 µM | [12] > 100 µM | [14] > 100 µM | [15] > 100 µM | [16] > 100 µM | [17] > 100 µM

CC(=O)OC1CC2C(C)(C)C(=O)C=CC2(C)C2CCC3(C)C(c4ccoc4)OC(=O)C4OC43C12C (stereo not given)
inactive: [1] 8.73 µM | [2] 5.77 µM | [3] 2.85 µM | [4] 3.33 µM | [5] 2.4 µM | [18] 14.5 µM | [6] 3.54 µM | [7] 3.92 µM | [8] 3.85 µM | [9] 3.48 µM | [10] 32.4 µM | [11] 6.61 µM | [12] 2.64 µM | [13] 4.66 µM | [14] 20.4 µM | [15] 13 µM | [16] 5.62 µM | [17] 5.37 µM

COc1ccc(NC(=O)c2cc(NC(=O)/C=C/c3ccccc3)c(OC)c(OC)c2)cc1
inactive: [1] 4.5 µM | [3] 16.3 µM | [5] 2.48 µM | [18] 16.8 µM | [6] 13.4 µM | [7] 3.83 µM | [8] 9.55 µM | [19] 3.1 µM | [9] 11.7 µM | [10] 53 µM | [11] 6.41 µM | [12] 3.83 µM | [13] 11.2 µM | [14] 20.4 µM | [15] 2.58 µM | [16] 5.82 µM | [17] 3.9 µM

CSc1nncc(-c2cc3c(c(SC)n2)CCC3)n1
inactive: [1] 53.6 µM | [2] > 100 µM | [3] > 100 µM | [5] 96.2 µM | [7] > 100 µM | [8] 18.9 µM | [10] 48.1 µM | [11] > 100 µM | [12] > 100 µM | [13] > 100 µM | [14] > 100 µM | [15] > 100 µM | [16] > 100 µM | [17] > 100 µM
